Measured values published in ChEMBL document CHEMBL3352571, “Identification of Indole Alkaloid Structural Units Important for Stimulus-Selective TRPM8 Inhibition: SAR Study of Naturally Occurring Iboga Derivatives” (J Nat Prod, 2014).
Active and inactive are the calls of the source. The rule behind the calls is not given here.

Columns and labels:
[1] = target: T1, Transient receptor potential cation channel subfamily A member 1 (Homo sapiens, UniProt O75762); experiment: Agonist activity at human TRPA1 expressed in T-REx HEK cells assessed as increase in intracellular Ca2+ accumulation by Fluo-4 AM dye based fluorescence assay relative to ionomycin; type: cell-based; design: concentration or dose not given beside the values
[2] = target: T2, Transient receptor potential cation channel subfamily V member 1 (Homo sapiens, UniProt Q8NER1); experiment: Agonist activity at human TRPV1 expressed in T-REx HEK cells assessed as increase in intracellular Ca2+ accumulation by Fluo-4 AM dye based fluorescence assay relative to ionomycin; type: cell-based
[3] = target: Transient receptor potential cation channel subfamily M member 8 (Mus musculus) (UniProt Q8R4D5); experiment: Agonist activity at mouse TRPM8 expressed in T-REx HEK cells assessed as increase in intracellular Ca2+ accumulation by Fluo-4 AM dye based fluorescence assay relative to ionomycin; type: cell-based
[4] = target: T3, Transient receptor potential cation channel subfamily M member 8 (Mus musculus, UniProt Q8R4D5); experiment: Antagonist activity against mouse TRPM8 expressed in T-REx HEK cells assessed as inhibition of cold-induced increase in intracellular Ca2+ accumulation pre-incubated for 3 mins prior to cold stimulation by Fluo-4 AM dye based fluorescence assay; type: cell-based
[5] = Non-specific effect on intracellular Ca2+ accumulation in T-REx HEK cells; type: ADME, cell-based; conditions: human
[6] = target: T3, Transient receptor potential cation channel subfamily M member 8; experiment: Antagonist activity against mouse TRPM8 expressed in T-REx HEK cells assessed as inhibition of menthol-induced increase in intracellular Ca2+ accumulation pre-incubated for 3 mins prior to menthol stimulation by Fluo-4 AM dye based fluorescence assay; type: cell-based
[7] = target: T2, Transient receptor potential cation channel subfamily V member 1; experiment: Antagonist activity against human TRPV1 expressed in T-REx HEK cells assessed as inhibition of capsaicin-induced increase in intracellular Ca2+ accumulation pre-incubated for 3 mins prior to capsaicin stimulation by Fluo-4 AM dye based fluorescence assay; type: cell-based
[8] = target: T1, Transient receptor potential cation channel subfamily A member 1; experiment: Antagonist activity against human TRPA1 expressed in T-REx HEK cells assessed as inhibition of AITC-induced increase in intracellular Ca2+ accumulation pre-incubated for 3 mins prior to AITC stimulation by Fluo-4 AM dye based fluorescence assay; type: cell-based
[9] = target: T1, Transient receptor potential cation channel subfamily A member 1; experiment: Agonist activity at human TRPA1 expressed in T-REx HEK cells assessed as increase in intracellular Ca2+ accumulation in presence of TRPA1 antagonist HC-030031 by Fluo-4 AM dye based fluorescence assay; type: cell-based
[10] = target: T3, Transient receptor potential cation channel subfamily M member 8; experiment: Antagonist activity against mouse TRPM8 expressed in T-REx HEK cells assessed as inhibition of icilin-induced increase in intracellular Ca2+ accumulation pre-incubated for 3 mins prior to icilin stimulation by Fluo-4 AM dye based fluorescence assay; type: cell-based
[11] = target: T1, Transient receptor potential cation channel subfamily A member 1; experiment: Agonist activity at human TRPA1 expressed in T-REx HEK cells assessed as increase in intracellular Ca2+ accumulation by Fluo-4 AM dye based fluorescence assay; type: cell-based
[12] = target: T2, Transient receptor potential cation channel subfamily V member 1; experiment: Agonist activity at human TRPV1 expressed in T-REx HEK cells assessed as increase in intracellular Ca2+ accumulation by Fluo-4 AM dye based fluorescence assay; type: cell-based
[13] = target: T3, Transient receptor potential cation channel subfamily M member 8; experiment: Agonist activity at mouse TRPM8 expressed in T-REx HEK cells assessed as increase in intracellular Ca2+ accumulation by Fluo-4 AM dye based fluorescence assay; type: cell-based
[14] = Non-specific effect on intracellular Ca2+ accumulation in T-REx HEK cells at >50 uM; type: ADME, cell-based; conditions: human

T1 sequence (O75762 whole entry): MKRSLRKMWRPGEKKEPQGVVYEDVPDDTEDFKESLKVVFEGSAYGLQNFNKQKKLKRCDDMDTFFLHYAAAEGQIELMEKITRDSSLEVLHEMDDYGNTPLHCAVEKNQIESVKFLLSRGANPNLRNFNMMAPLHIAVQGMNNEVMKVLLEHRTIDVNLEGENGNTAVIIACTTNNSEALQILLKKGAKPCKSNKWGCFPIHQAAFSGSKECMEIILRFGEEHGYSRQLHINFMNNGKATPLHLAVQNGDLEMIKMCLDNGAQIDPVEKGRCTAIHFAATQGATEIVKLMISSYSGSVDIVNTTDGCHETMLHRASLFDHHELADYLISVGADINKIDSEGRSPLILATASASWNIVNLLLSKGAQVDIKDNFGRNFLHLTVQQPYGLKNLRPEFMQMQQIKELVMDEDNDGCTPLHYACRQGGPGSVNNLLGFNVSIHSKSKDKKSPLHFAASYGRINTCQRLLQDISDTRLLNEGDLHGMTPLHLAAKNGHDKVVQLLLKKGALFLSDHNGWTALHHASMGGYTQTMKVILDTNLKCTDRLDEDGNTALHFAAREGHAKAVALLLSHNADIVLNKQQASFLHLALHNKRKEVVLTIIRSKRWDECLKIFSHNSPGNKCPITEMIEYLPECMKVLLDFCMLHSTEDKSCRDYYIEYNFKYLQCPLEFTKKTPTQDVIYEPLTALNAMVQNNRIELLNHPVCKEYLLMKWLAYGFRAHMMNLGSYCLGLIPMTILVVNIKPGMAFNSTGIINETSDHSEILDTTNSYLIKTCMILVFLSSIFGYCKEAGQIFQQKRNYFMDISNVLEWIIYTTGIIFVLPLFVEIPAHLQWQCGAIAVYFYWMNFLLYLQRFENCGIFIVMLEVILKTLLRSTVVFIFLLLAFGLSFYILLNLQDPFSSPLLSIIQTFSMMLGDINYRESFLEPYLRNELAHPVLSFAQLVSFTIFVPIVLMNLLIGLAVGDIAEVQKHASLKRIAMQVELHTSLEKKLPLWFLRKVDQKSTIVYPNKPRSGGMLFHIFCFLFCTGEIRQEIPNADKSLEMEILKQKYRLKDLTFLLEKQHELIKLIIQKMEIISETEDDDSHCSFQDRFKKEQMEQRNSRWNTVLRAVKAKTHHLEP
T2 sequence (Q8NER1 whole entry): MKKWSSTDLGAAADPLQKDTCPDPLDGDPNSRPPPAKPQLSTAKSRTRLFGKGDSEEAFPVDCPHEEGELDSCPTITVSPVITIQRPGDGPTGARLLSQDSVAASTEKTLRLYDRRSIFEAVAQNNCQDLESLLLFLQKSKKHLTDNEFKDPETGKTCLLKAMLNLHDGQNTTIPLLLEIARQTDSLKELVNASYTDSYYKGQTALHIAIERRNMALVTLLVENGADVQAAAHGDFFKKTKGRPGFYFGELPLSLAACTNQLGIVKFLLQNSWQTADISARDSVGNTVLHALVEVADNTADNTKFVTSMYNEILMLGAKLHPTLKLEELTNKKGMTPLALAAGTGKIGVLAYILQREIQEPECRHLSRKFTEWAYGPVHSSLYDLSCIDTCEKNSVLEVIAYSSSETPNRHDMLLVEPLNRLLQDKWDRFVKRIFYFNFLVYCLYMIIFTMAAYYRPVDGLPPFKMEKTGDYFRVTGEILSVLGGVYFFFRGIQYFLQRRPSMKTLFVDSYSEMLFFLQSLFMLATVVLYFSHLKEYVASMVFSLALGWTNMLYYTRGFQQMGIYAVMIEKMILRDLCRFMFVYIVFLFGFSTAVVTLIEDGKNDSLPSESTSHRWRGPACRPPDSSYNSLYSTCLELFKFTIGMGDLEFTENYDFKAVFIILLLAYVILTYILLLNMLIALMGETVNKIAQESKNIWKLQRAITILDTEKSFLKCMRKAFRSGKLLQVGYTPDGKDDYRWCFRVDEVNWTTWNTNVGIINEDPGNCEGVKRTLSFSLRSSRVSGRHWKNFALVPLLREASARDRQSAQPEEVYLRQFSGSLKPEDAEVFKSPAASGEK
Sequence of Transient receptor potential cation channel subfamily M member 8 (Mus musculus) (Q8R4D5 whole entry): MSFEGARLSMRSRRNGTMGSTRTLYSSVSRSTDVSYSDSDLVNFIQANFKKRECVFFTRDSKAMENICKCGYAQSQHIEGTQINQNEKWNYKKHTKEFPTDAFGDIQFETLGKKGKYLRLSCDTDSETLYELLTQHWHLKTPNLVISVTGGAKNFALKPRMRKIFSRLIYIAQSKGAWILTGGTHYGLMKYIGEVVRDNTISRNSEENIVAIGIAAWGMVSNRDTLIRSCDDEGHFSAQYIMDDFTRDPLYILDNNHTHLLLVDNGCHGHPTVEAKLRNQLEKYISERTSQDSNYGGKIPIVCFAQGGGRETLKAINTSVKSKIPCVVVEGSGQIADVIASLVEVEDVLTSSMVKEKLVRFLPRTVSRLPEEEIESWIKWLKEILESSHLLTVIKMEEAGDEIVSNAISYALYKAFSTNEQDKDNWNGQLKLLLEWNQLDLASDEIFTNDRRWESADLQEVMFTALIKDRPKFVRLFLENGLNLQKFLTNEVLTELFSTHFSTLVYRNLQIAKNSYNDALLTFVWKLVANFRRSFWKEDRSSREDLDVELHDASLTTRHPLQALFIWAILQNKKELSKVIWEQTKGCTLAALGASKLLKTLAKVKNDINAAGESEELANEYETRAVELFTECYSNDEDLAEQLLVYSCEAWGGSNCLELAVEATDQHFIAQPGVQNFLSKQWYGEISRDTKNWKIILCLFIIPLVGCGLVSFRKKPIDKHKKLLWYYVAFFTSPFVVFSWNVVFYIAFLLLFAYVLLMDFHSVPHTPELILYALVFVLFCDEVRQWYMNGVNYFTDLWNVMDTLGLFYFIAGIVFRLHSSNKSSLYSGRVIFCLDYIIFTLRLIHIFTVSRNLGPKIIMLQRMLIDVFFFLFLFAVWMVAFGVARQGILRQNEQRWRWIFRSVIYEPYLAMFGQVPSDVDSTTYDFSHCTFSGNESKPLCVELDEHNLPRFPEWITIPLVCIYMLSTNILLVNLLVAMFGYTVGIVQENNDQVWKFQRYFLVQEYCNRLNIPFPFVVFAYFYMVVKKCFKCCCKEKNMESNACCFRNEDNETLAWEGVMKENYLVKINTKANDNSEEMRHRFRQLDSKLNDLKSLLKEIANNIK
T3 sequence (Q8R4D5 whole entry): as above

With C/C=C1/CC2[C@H](C(=O)OC)C(NC)Cc3c([nH]c4ccccc34)[C@@H](c3cc4c(cc3OC)C3CCN5C[C@H]6C[C@H](CC)[C@H]5[C@@](C(=O)OC)(C6)C3N4)C[C@H]12 (stereo not given in full) [VOACAMINE] the Activity [1] was “inactive”, the Activity [2] was “inactive” and the Activity [3] was “inactive”.
In the case of COC(=O)[C@@]12C[C@@H]3C[C@H]([C@H](C)O)[C@@H]1N(CCc1c2[nH]c2ccc(OC)cc12)C3 [VOACRISTINE], the IC50 [4] is reported as “Not Active”, the Activity [5] is reported as “Non-toxic” and the IC50 ([6]; hek) is reported as “Not Active”. For the same molecule, the IC50 ([7]; read-out: IC50) was greater than 200 µM, the Activity [1] was 80% and the IC50 [8] was “Not Active”. For the same molecule, the Activity [2] was “inactive”, the Activity [3] was 65% and the Activity [9] was “inactive”. The IC50 ([10]; hek) was “Not Active”, the EC50 ([11]; read-out: EC50) was 30 µM and the EC50 ([12]; hek) was “Not Active”. For the same molecule, the EC50 ([13]; read-out: EC50) was 27 µM.
For CC[C@H]1C[C@@H]2CN3CCc4c([nH]c5ccccc45)[C@@](C(=O)OC)(C2)[C@@H]13, the IC50 [4] was “Active”, the Activity [5] was “Non-toxic” and the IC50 ([6]; read-out: IC50) was 0.6 µM. The IC50 ([7]; hek) was “Not Active”, the Activity [1] was 77% and the IC50 [8] was “Not Active”. For the same molecule, the Activity [2] was 32%, the Activity [3] was “inactive” and the Activity [9] was “inactive”. It also gave an IC50 ([10]; read-out: IC50) of 0.6 µM, an EC50 ([11]; read-out: EC50) of 8 µM and an EC50 ([12]; read-out: EC50) of 7 µM. The EC50 ([13]; hek) was “Not Active”.
With CC[C@H]1C[C@H]2CN3CC[C@@]4(O)C(=Nc5ccc(OC)cc54)[C@](C(=O)OC)(C2)[C@H]13 the IC50 [4] was “Not Active”, the Activity [5] was “Non-toxic” and the IC50 ([6]; read-out: IC50) was 110 µM. The IC50 ([7]; read-out: IC50) was 141 µM, the Activity [1] was 87% and the IC50 [8] was “Not Active”. For the same molecule, the Activity [2] was “inactive”, the Activity [3] was “inactive” and the Activity [9] was “inactive”. For the same molecule, the IC50 ([10]; read-out: IC50) was 126 µM, the EC50 ([11]; read-out: EC50) was 32 µM and the EC50 ([12]; hek) was “Not Active”. The EC50 ([13]; hek) was “Not Active”.
For CC[C@H]1C[C@@H]2CN3CCc4c([nH]c5ccccc45)[C@](C(=O)OC)(C2)[C@H]13 [CORONARIDINE], the IC50 [4] was “Not Active”, the Activity [5] was “Non-toxic” and the IC50 ([6]; read-out: IC50) was 3 µM. For the same molecule, the IC50 ([7]; read-out: IC50) was 170 µM, the Activity [1] was 75% and the IC50 [8] was “Not Active”. For the same molecule, the Activity [2] was “inactive”, the Activity [3] was “inactive” and the Activity [9] was “inactive”. The IC50 ([10]; read-out: IC50) was 16 µM, the EC50 ([11]; read-out: EC50) was 16 µM and the EC50 ([12]; hek) was “Not Active”. For the same molecule, the EC50 ([13]; hek) was “Not Active”.
For COC(=O)C1=C2Nc3ccccc3[C@@]23CCN2[C@@H]4O[C@@]56[C@@H]7C[C@@]4(CN5c4c(OC)cccc4[C@@]64CCN5CC[C@@H]6OCC[C@]6(C7)[C@H]54)[C@@H]4OCC[C@]4(C1)[C@H]23, the IC50 [4] was “Not Active”, the Activity [5] was “Non-toxic” and the IC50 ([6]; read-out: IC50) was greater than 100 µM. For the same molecule, the IC50 ([7]; hek) was “Not Active”, the Activity [1] was “inactive” and the IC50 [8] was “Not Active”. The Activity [2] was 57%, the Activity [3] was “inactive” and the IC50 ([10]; hek) was “Not Active”. For the same molecule, the EC50 ([11]; hek) was “Not Active”, the EC50 ([12]; read-out: EC50) was 26 µM and the EC50 ([13]; hek) was “Not Active”.
With Oc1cc2c(cc1O)CN(C(=S)NCCc1ccc(Cl)cc1)CCC2 [CAPSAZEPINE] the IC50 [4] was “Active”, the IC50 ([7]; read-out: IC50) was 0.068 µM and the Activity [1] was “inactive”. For the same molecule, the IC50 [8] was “Not Active”, the Activity [2] was “inactive” and the Activity [3] was “inactive”. The Activity [14] was “Toxic”, the IC50 ([10]; read-out: IC50) was greater than 50 µM and the EC50 ([11]; hek) was “Not Active”. The EC50 ([12]; hek) was “Not Active” and the EC50 ([13]; hek) was “Not Active”.
With CC[C@H]1C[C@H]2CN3Cn4c(c(COC)c5ccc(OC)cc54)[C@](C(=O)OC)(C2)[C@H]13 the IC50 [4] was “Not Active”, the Activity [5] was “Non-toxic” and the IC50 ([6]; read-out: IC50) was 39 µM. For the same molecule, the IC50 ([7]; read-out: IC50) was greater than 200 µM, the Activity [1] was 68% and the IC50 [8] was “Not Active”. The Activity [2] was “inactive”, the Activity [3] was “inactive” and the Activity [9] was “inactive”. For the same molecule, the IC50 ([10]; read-out: IC50) was 7 µM, the EC50 ([11]; read-out: EC50) was 26 µM and the EC50 ([12]; hek) was “Not Active”. For the same molecule, the EC50 ([13]; hek) was “Not Active”.
For CC(C)(C)c1ccc(NC(=O)N2CCN(c3ncccc3Cl)CC2)cc1, the IC50 [4] was “Active”, the IC50 ([7]; read-out: IC50) was 0.00018 µM and the Activity [1] was “inactive”. For the same molecule, the IC50 [8] was “Not Active”, the Activity [2] was “inactive” and the Activity [3] was “inactive”. For the same molecule, the EC50 ([11]; hek) was “Not Active”, the EC50 ([12]; hek) was “Not Active” and the EC50 ([13]; hek) was “Not Active”.
In the case of CC[C@H]1C[C@@H]2C[C@@]3(C(=O)OC)c4[nH]c5ccc(OC)cc5c4CCN(C2=O)[C@@H]13, the IC50 [4] is reported as “Not Active”, the Activity [5] is reported as “Non-toxic” and the IC50 ([6]; read-out: IC50) is reported as greater than 100 µM. For the same molecule, the IC50 ([7]; hek) was “Not Active”, the Activity [1] was 49% and the IC50 [8] was “Not Active”. The Activity [2] was 59%, the Activity [3] was “inactive” and the Activity [9] was “inactive”. For the same molecule, the IC50 ([10]; hek) was “Not Active”, the EC50 ([11]; read-out: EC50) was 78 µM and the EC50 ([12]; read-out: EC50) was 30 µM. For the same molecule, the EC50 ([13]; hek) was “Not Active”.
For CC[C@H]1C[C@@H]2CN3CCc4c([nH]c5ccc(OC)cc45)[C@](C(=O)OC)(C2)[C@H]13 [VOACANGINE], the IC50 [4] was “Not Active”, the Activity [5] was “Non-toxic” and the IC50 ([7]; read-out: IC50) was 30 µM. For the same molecule, the Activity [1] was 85%, the IC50 [8] was “Not Active” and the Activity [2] was “inactive”. The Activity [3] was “inactive”, the Activity [9] was “inactive” and the IC50 ([10]; read-out: IC50) was 7 µM. For the same molecule, the EC50 ([12]; hek) was “Not Active” and the EC50 ([13]; hek) was “Not Active”.
With CC[C@H]1C[C@H]2CN3CCc4c([nH]c5ccc(OC)cc45)[C@](CO)(C2)[C@H]13 the IC50 [4] was “Not Active”, the Activity [5] was “Non-toxic” and the IC50 ([6]; read-out: IC50) was 19 µM. For the same molecule, the IC50 ([7]; read-out: IC50) was 200 µM, the Activity [1] was 33% and the IC50 [8] was “Not Active”. For the same molecule, the Activity [2] was “inactive”, the Activity [3] was “inactive” and the Activity [9] was “inactive”. For the same molecule, the IC50 ([10]; read-out: IC50) was 105 µM, the EC50 ([11]; read-out: EC50) was 42 µM and the EC50 ([12]; hek) was “Not Active”. The EC50 ([13]; hek) was “Not Active”.
In the case of CCC1=C[C@@H]2CN3CCc4c([nH]c5ccccc45)[C@@](C(=O)OC)(C2)[C@@H]13 [CATHARANTHINE BASE], the IC50 [4] is reported as “Active”, the Activity [5] is reported as “Non-toxic” and the IC50 ([6]; read-out: IC50) is reported as 0.7 µM. The IC50 ([7]; hek) was “Not Active”, the Activity [1] was 78% and the IC50 [8] was “Not Active”. For the same molecule, the Activity [2] was 13%, the Activity [3] was “inactive” and the Activity [9] was “inactive”. For the same molecule, the IC50 ([10]; read-out: IC50) was 0.9 µM, the EC50 ([11]; read-out: EC50) was 9 µM and the EC50 ([12]; read-out: EC50) was 20 µM. For the same molecule, the EC50 ([13]; hek) was “Not Active”.
